Experimental data taken from patent US8728539B2, “Method of enhancing intestinal pinocytosis of immunoglobulins in postnatal domestic mammals” (Incorporated Administrative Agency, National Agriculture …, priority 2004, dated 2014).

What was measured:
[1] = test system: calves (Holstein types); assay: IgG in plasma of postnatal calves fed colostrum with added selenium, measured by radial immuno-diffusion (RID); type: in vivo
[2] = test system: calves (Holstein types); assay: as above; type: in vivo; conditions: for IgG in Plasma: plasma 24 hours post-parturition
Experimental: In the example, colostrum added with selenium was administered to one of the two calves (Holstein types) in a pair, and colostrum without selenium was administered to the other calf. A total of 32 pairs of calves were employed for experimental purposes. For equalizing the experimental conditions of these two sets of calves, they were selected based on their proximities in body weight. The body weights ranged from 30.8-56.9 kg, and the differences between in body weight within a pair were less than 2.5 kg.
(§1) As a supply source of selenium, sodium selenite was used. In order to avoid different absorption rates of immunoglobulins based on different types of colostrum, the same amounts of colostrum milked from the same source were fed to these two calves in a pair. The colostrums fed (frozen for preservation) were of the four types as follows: the first milking post-parturition (Colostrum 1), the second milking post-parturition (Colostrum 2), the third milking post-parturition (Colostrum 3), and the fourth milking post-parturition (Colostrum 4). 2 liters of Colostrum 1 (1 L×2 bottles) were taken, and for the rest, 4 liters (2L×2 bottles) were taken, respectively. 1 liter of Colostrum 1 within 2 hours post-parturition was fed, and then 2 liters of Colostrum 2, 3 and 4 were fed, respectively 12, 24 and 36 hours post-parturition. The concentrations of immunoglobulins in the colostrums used were 24.3-129.0 mg/ml, and those of selenium were 0.06-0.1 ppm (before adding selenium). The concentrations of immunoglobulins G (IgG) in plasma of calves 24 hours post-parturition were measured by means of radial immuno-diffusion (RID). The experiments as above were carried out while varying the selenium content based on the number of addition of selenium, i.e., (1) adding selenium only to Colostrum 1 (1.0-5.0 ppm), and (2) adding selenium to all four types of colostrum (0.2-4.0 ppm).

[3] = test system: calves (Holstein types); assay: Biochemical blood tests (18 factors) for adverse effects of added selenium; type: in vivo; conditions: blood samples 24, 48 hours and 1 week post-parturition; versus colostrum without selenium
Experimental: Moreover, the blood samples were taken 24, 48 hours and 1 week post-parturition respectively, and biochemical blood tests (with 18 factors) were carried out to investigate any adverse effects of added selenium on the health conditions of calves. There was little difference between the test results of the calves administered with colostrum added with selenium, and those of the calves administered with colostrum without selenium.

[4] = test system: calves (Holstein types); assay: Absorption of lactalbumin into plasma of calves (FIG. 5); type: in vivo; conditions: 3 ppm selenium in first colostrum feed; 24 hours postnatal; versus no addition
Experimental: To calves administered with colostrum with selenium, selenium was added only to the first colostrum feeds.
Therefore, selenium is effective in absorption of nonimmunoglobulin proteins such as lactalbumin. Accordingly, selenium enhances pinocytosis, thereby enhancing immunoglobulin proteins or nonimmunoglobulin proteins.

[5] = Selenium concentration in plasma of calves after administration (FIG. 4); type: in vivo, calves (Holstein types); conditions: 3 ppm selenium, administered only once within 3 hours postnatal; versus no addition
Source text: as §1, with “ppm). […]” for “ppm).”

[6] = 3 ppm selenium, first feed only, versus no addition

O=[Se]([O-])[O-].[Na+].[Na+] [Se, sodium selenite]
duration of high immunoglobulin G level in blood (FIG. 7) [1, 6]: the high level against no addition was maintained over 14 days (2 weeks) | immunoglobulin G level in blood immediately after administration (FIG. 7) [1, 6]: immunoglobulin G level immediately after administration of selenium is high | IgG in Plasma ([1]; 5.0 ppm Se added to all four colostrum feeds (4x), plasma 24 hours post-parturition, average of 4 calves): 24.6 mg/mL | immunoglobulin G level in blood, selenium and colostrum administered separately (FIG. 6) ([1]; only 3 ppm selenium within 2 hours postnatal, then only colostrum at 12, 24, 36 hours, within 24 hours postnatal, versus no addition): absorption level of immunoglobulin G is high | IgG in Plasma ([2]; 0.2 ppm Se added to all four colostrum feeds (4x), average of 3 calves): 25.7 mg/mL | IgG in Plasma ([2]; 1 ppm Se added only to first colostrum feed (1x), average of 3 calves): 17 mg/mL | IgG in Plasma ([2]; 1.0 ppm Se added to all four colostrum feeds (4x), average of 5 calves): 32.9 mg/mL | IgG in Plasma ([2]; 2 ppm Se added only to first colostrum feed (1x), average of 3 calves): 16 mg/mL | IgG in Plasma ([2]; 3 ppm Se added only to first colostrum feed (1x), average of 6 calves): 21.5 mg/mL | IgG in Plasma ([2]; 4 ppm Se added only to first colostrum feed (1x), average of 4 calves): 17.4 mg/mL | IgG concentration in plasma, four feeds with selenium versus first feed only with selenium ([2]; 4x versus 1x addition of selenium): about the same level | IgG in Plasma ([2]; 5 ppm Se added only to first colostrum feed (1x), average of 4 calves): 23 mg/mL | IgG concentrations in plasma versus calves given colostrum without selenium (FIGS. 2 and 3) ([2]; in most of the experimental conditions, 1x and 4x addition): shown to be higher | adverse effects on the health conditions of calves, biochemical blood tests (18 factors) [3]: no adverse effects | absorption of lactalbumin (FIG. 5) [4]: enhances the absorption of lactalbumin | selenium level in blood, temporal change (FIG. 4) [5]: high selenium level in blood was maintained over 4 weeks postnatal
